The text below walks through data of ChEMBL document CHEMBL3232821, “1,2-benzisothiazol-3-one derivatives as a novel class of small-molecule caspase-3 inhibitors” (Bioorg Med Chem, 2014).

For one data set, the target named is T1, Caspase-7 (Homo sapiens, UniProt P55210).
T1 sequence (P55210 whole entry): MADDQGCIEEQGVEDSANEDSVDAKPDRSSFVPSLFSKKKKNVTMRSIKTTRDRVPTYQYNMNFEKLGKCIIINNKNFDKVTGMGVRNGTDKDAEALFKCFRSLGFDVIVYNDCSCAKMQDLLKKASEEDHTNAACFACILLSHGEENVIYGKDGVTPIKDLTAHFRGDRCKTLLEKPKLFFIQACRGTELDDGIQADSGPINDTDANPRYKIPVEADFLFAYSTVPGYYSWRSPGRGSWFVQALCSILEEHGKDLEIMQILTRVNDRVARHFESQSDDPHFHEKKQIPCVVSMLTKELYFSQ
The data set is described as follows: Inhibition of human recombinant caspase-7 using Ac-DEVD-AMC as substrate after 10 mins by fluorescence assay.

Data set [1] in a line: Solubility of the compound in water. Particulars: buffer. Format: physicochemical.
A further data set addresses T2, Caspase-3 (Homo sapiens, UniProt P42574).
T2 sequence (P42574 whole entry): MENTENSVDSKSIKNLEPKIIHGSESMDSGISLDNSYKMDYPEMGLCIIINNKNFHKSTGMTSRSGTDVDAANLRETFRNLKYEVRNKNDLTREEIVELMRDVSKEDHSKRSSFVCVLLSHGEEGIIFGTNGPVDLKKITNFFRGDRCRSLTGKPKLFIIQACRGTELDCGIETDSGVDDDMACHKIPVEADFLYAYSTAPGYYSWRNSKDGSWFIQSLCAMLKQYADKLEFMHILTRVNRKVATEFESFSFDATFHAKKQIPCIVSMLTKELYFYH
The data set is described as follows: Inhibition of human recombinant caspase-3 using […] as substrate after 10 mins by fluorescence assay.

Another data set deals with Jurkat. As to the kind of experiment: Antiapoptotic activity in human Jurkat T cells assessed as protection against camptothecin-induced apoptosis at 50 uM treated 2 hrs before camptothecin addition measured after 4 hrs using annexin V-FITC and 7-AAD staining by flow cytometry. It counts as functional, cell-based. (In general: A flow cytometer gives signals particle by particle.)

The source made the active and inactive calls. No cut-off for these calls is given here.

As a reminder, the IC50 is the midpoint of a concentration-inhibition curve. As to `O=c1[nH]sc2ccccc12`, the IC50 on Caspase-7 came out at 137 µM.
The same measure, in the same setting: next, `O=C(Cn1sc2ccccc2c1=O)Nc1ccc(N2CCOCC2)cc1`: 100 µM.
In the case of `O=C(Nc1ccc(N2CCOCC2)cc1)n1sc2ccccc2c1=O`, the solubility entry in data set [1] was “Insoluble”. In addition, the IC50 on Caspase-3 amounted to 0.00115 µM; at Caspase-7, 0.909 µM.
For the compound `O=C(NCc1ccc(N2CCOCC2)cc1)n1sc2ccccc2c1=O`, the solubility result in data set [1] is listed as “soluble”. Moreover, the outcome in the data set on Jurkat was Active. Besides, the IC50 at Caspase-7 was found to be 248 µM.
